Values joined by “and” are separate entries in the source; they are usually repeats but may differ in a detail not shown here. Identical values can stand only once. Toxic doses and inconclusive results are not listed.

The subject of the test is P388 leukemia ip, CD2F1 mice, survival T/C. The experiment in a line: NCI In Vivo Anticancer Drug Screen. Data for tumor model P388 Leukemia (intraperitoneal) in CD2F1 (CDF1) mice. The conditions noted are these: endpoint: median survival time, higher = longer survival. The gist of the method:
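Mice carrying the transplanted tumor received test compound or vehicle. Survival was recorded in each group, and the value is the treated-group measurement divided by that of the vehicle-treated control group.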

[1] abbreviates: dose: 50.0 mg/kg/injection, schedule: Q01DX009 (ip), vehicle: saline with Tween-80.
[2] abbreviates: dose: 100.0 mg/kg/injection, schedule: Q01DX009 (ip), vehicle: saline with Tween-80.
Where [3] appears, read: dose: 200.0 mg/kg/injection, schedule: Q01DX009 (ip), vehicle: saline with Tween-80.
The mark [4] stands for this setting: dose: 50.0 mg/kg/injection, schedule: Q01DX005 (ip), vehicle: saline with Tween-80.
Setting [5] is: dose: 100.0 mg/kg/injection, schedule: Q01DX005 (ip), vehicle: saline with Tween-80.
Where [6] appears, read: dose: 60.0 mg/kg/injection, schedule: Q01DX005 (ip), vehicle: saline with Tween-80.
Setting [7] is: dose: 120.0 mg/kg/injection, schedule: Q01DX005 (ip), vehicle: saline with Tween-80.
Where [8] appears, read: dose: 240.0 mg/kg/injection, schedule: Q01DX005 (ip), vehicle: saline with Tween-80.

For the compound `O=C(c1cccc(C(=O)N2CCCC2)n1)N1CCCC1`, the T/C by setting is: (dose: 60.0 mg/kg/injection, schedule: Q01DX005 (ip), vehicle: saline) 102 % of control; (dose: 120.0 mg/kg/injection, schedule: Q01DX005 (ip), vehicle: saline) 102 % of control; (dose: 240.0 mg/kg/injection, schedule: Q01DX005 (ip), vehicle: saline) 109 % of control.

Take `CN(C)c1cc2c(nn1)Nc1ccccc1S2`: the T/C is 96 % of control under setting [1], 96 % of control under setting [2] and 90 % of control under setting [3].

With `CN1C=CC(C(O)(c2ccccc2)c2ccccc2)CC1` (stereo not given), the T/C by setting is: under setting [4], 99 % of control; under setting [5], 97 % of control; (dose: 200.0 mg/kg/injection, schedule: Q01DX005 (ip), vehicle: saline with Tween-80) 100 % of control.

For `Clc1ccc(Nc2ncnc3oc(-c4ccccc4)c(-c4ccccc4)c23)cc1`, the T/C runs as follows: under setting [6], 100 % of control; under setting [7], 97 % of control; under setting [8], 90 % of control.

For the compound `CC(=O)c1ccc(NN=NCCCl)cc1`, the T/C is 98 % of control (dose: 12.5 mg/kg/injection, schedule: Q01DX009 (ip), vehicle: distilled water + Tween-80); 100 % of control (dose: 25.0 mg/kg/injection, schedule: Q01DX009 (ip), vehicle: distilled water + Tween-80); 104 % of control (dose: 50.0 mg/kg/injection, schedule: Q01DX009 (ip), vehicle: distilled water + Tween-80); 104 % of control (dose: 100.0 mg/kg/injection, schedule: Q01DX009 (ip), vehicle: distilled water + Tween-80); 107 % of control (dose: 200.0 mg/kg/injection, schedule: Q01DX009 (ip), vehicle: distilled water + Tween-80).

As for `Nc1ccc(CCCC(=O)NCc2cccnc2)cc1`, the T/C is 106 % of control under setting [6], 96 % of control under setting [7] and 91 % of control under setting [8].

In the case of `FC(F)(F)c1ccccc1NC(=S)Nc1ccc(I)cc1`, the T/C is, setting by setting: (dose: 50.0 mg/kg/injection, schedule: Q01DX009 (ip), vehicle: gum acacia) 92 % of control; (dose: 100.0 mg/kg/injection, schedule: Q01DX009 (ip), vehicle: gum acacia) 92 % of control; (dose: 200.0 mg/kg/injection, schedule: Q01DX009 (ip), vehicle: gum acacia) 89 % of control.

Turning to `COc1ccccc1N=C1SCC(=O)N1Cc1ccco1`, the T/C was 95 % of control under setting [1], 95 % of control under setting [2] and 92 % of control under setting [3].

Regarding `COC(=O)c1nn(-c2ccc(Cl)cc2)c2nc3ccccc3c-2c1C(=O)OC`, the T/C (dose: 100.0 mg/kg/injection, schedule: Q01DX001 (ip), vehicle: saline with Tween-80) is 96 % of control; the T/C (dose: 200.0 mg/kg/injection, schedule: Q01DX001 (ip), vehicle: saline with Tween-80) is 115 % of control; the T/C (dose: 400.0 mg/kg/injection, schedule: Q01DX001 (ip), vehicle: saline with Tween-80) is 96 % of control.

As for `C(#Cc1ccncc1)c1ccncc1`, the T/C under setting [4] is 100 % of control and the T/C under setting [5] is 98 % of control.

As for `OCCCN1CCCCC1CO` (stereo not given), the T/C under setting [1] is 116 % of control and the T/C under setting [3] was 150 % of control.

Regarding `O=C1C(N2CCOCC2)=C(N2CC2)C(=O)C(N2CCOCC2)=C1N1CC1`, the T/C runs as follows: (dose: 0.25 mg/kg/injection, schedule: Q01DX009 (ip), vehicle: saline) 119 % of control; (dose: 0.5 mg/kg/injection, schedule: Q01DX009 (ip), vehicle: saline) 152 % of control; (dose: 0.66 mg/kg/injection, schedule: Q01DX009 (ip), vehicle: saline) 153 % of control; (dose: 1.0 mg/kg/injection, schedule: Q01DX009 (ip), vehicle: saline) 152 % of control and 161 % of control; (dose: 1.5 mg/kg/injection, schedule: Q01DX009 (ip), vehicle: saline) 170 % of control.

In the case of `CN(C)Cc1nc2sc3c(c2c(=O)[nH]1)CCCC3`, the T/C is 106 % of control under setting [1], 108 % of control under setting [2] and 103 % of control under setting [3].

On to `O=P(N1CC1)(N1CC1)N1CC1`, for which the T/C (dose: 3.0 mg/kg/injection, schedule: Q01DX009 (ip), vehicle: saline) was 216 % of control.

Regarding `COc1cc2cc3c4cc(OC)c(OC)cc4cc[n+]3c(C)c2cc1OC`, the T/C (dose: 25.0 mg/kg/injection, schedule: Q01DX009 (ip), vehicle: other) was 155 % of control; the T/C (dose: 50.0 mg/kg/injection, schedule: Q01DX009 (ip), vehicle: other) is 152 % of control and 169 % of control and 178 % of control; the T/C (dose: 50.0 mg/kg/injection, schedule: Q01DX009 (ip), vehicle: saline sonified) is 109 % of control; the T/C (dose: 50.0 mg/kg/injection, schedule: Q04DX003 (ip), vehicle: other) was 156 % of control and 158 % of control; the T/C (dose: 100.0 mg/kg/injection, schedule: Q01DX009 (ip), vehicle: other) was 172 % of control and 189 % of control and 198 % of control; the T/C (dose: 100.0 mg/kg/injection, schedule: Q01DX009 (ip), vehicle: saline sonified) is 109 % of control. Besides, the T/C reads like this: (dose: 100.0 mg/kg/injection, schedule: Q01DX009 (oral), vehicle: saline) 104 % of control; (dose: 100.0 mg/kg/injection, schedule: Q04DX003 (ip), vehicle: other) 153 % of control and 169 % of control and 177 % of control; (dose: 200.0 mg/kg/injection, schedule: Q01DX001 (oral), vehicle: saline) 104 % of control; (dose: 200.0 mg/kg/injection, schedule: Q01DX009 (ip), vehicle: other) 153 % of control and 162 % of control; (dose: 200.0 mg/kg/injection, schedule: Q01DX009 (ip), vehicle: saline sonified) 109 % of control; (dose: 200.0 mg/kg/injection, schedule: Q01DX009 (oral), vehicle: saline) 104 % of control. Further, the T/C was 166 % of control (2×) and 199 % of control (dose: 200.0 mg/kg/injection, schedule: Q04DX003 (ip), vehicle: other); 104 % of control (dose: 200.0 mg/kg/injection, schedule: Q04DX003 (oral), vehicle: saline); 100 % of control (dose: 400.0 mg/kg/injection, schedule: Q01DX001 (oral), vehicle: saline); 182 % of control (dose: 400.0 mg/kg/injection, schedule: Q01DX009 (ip), vehicle: other); 90 % of control (dose: 400.0 mg/kg/injection, schedule: Q01DX009 (ip), vehicle: saline sonified); 100 % of control (dose: 400.0 mg/kg/injection, schedule: Q01DX009 (oral), vehicle: saline). For the same compound, the T/C runs as follows: (dose: 400.0 mg/kg/injection, schedule: Q04DX003 (ip), vehicle: other) 161 % of control and 165 % of control and 191 % of control; (dose: 400.0 mg/kg/injection, schedule: Q04DX003 (ip), vehicle: saline sonified) 150 % of control; (dose: 400.0 mg/kg/injection, schedule: Q04DX003 (oral), vehicle: saline) 104 % of control; (dose: 800.0 mg/kg/injection, schedule: Q01DX001 (oral), vehicle: saline) 104 % of control; (dose: 800.0 mg/kg/injection, schedule: Q04DX003 (oral), vehicle: saline) 109 % of control.

As to `c1ccc(-c2nc3ccccc3o2)cc1`, the T/C is, setting by setting: (dose: 25.0 mg/kg/injection, schedule: Q01DX009 (ip), vehicle: saline with Tween-80) 86 % of control; under setting [1], 98 % of control; under setting [2], 101 % of control; under setting [3], 88 % of control.

Turning to `CC(=O)OCC(=O)[C@@]1(O)CC[C@H]2[C@@H]3CCC4=CC(=O)CC[C@]4(C)[C@@]3(Cl)[C@@H](O)C[C@@]21C`, the T/C is, setting by setting: (dose: 88.0 mg/kg/injection, schedule: Q04DX003 (ip), vehicle: saline with Tween-80) 123 % of control; under setting [2], 118 % of control; (dose: 132.0 mg/kg/injection, schedule: Q04DX003 (ip), vehicle: saline with Tween-80) 123 % of control; under setting [3], 90 % of control; (dose: 200.0 mg/kg/injection, schedule: Q04DX003 (ip), vehicle: saline with Tween-80) 114 % of control; (dose: 300.0 mg/kg/injection, schedule: Q04DX003 (ip), vehicle: saline with Tween-80) 123 % of control. The T/C was 100 % of control (dose: 400.0 mg/kg/injection, schedule: Q01DX009 (ip), vehicle: saline with Tween-80) and 109 % of control (dose: 400.0 mg/kg/injection, schedule: Q04DX003 (ip), vehicle: saline with Tween-80).

`O=C(Nc1cccc(Cl)c1)Sc1c(Cl)c(Cl)c(Cl)c(Cl)c1Cl`: the T/C is 106 % of control under setting [1], 109 % of control under setting [2] and 112 % of control under setting [3].
